Data: US20080132505A1 (Glaxo Group Limited, priority 2004, published 2008)

Biological target: human cannabinoid CB2 receptor (Homo sapiens, UniProt P34972)
Test: Cannabinoid CB2 receptor agonist activity (yeast reporter assay, FDGlu fluorescence)
Format: cell-based
Conditions: for EC50: EC50 value at the cloned human cannabinoid CB2 receptor; for Emax: read-out: efficacy value (Emax relative to HU210) at the cloned human cannabinoid CB2 receptor
Experimental: Determination of Cannabinoid CB2 Receptor Agonist Activity
The cannabinoid CB2 receptor agonist activity of the compounds of formula (I)-(IV) was determined in accordance with the following experimental method.
Yeast (Saccharomyces cerevisiae) cells expressing the human cannabinoid CB2 receptor were generated by integration of an expression cassette into the ura3 chromosomal locus of yeast strain MMY23. This cassette consisted of DNA sequence encoding the human CB2 receptor flanked by the yeast GPD promoter to the 5′ end of CB2 and a yeast transcriptional terminator sequence to the 3′ end of CB2. MMY23 expresses a yeast/mammalian chimeric G-protein alpha subunit in which the C-terminal 5 amino acids of Gpa1 are replaced with the C-terminal 5 amino acids of human Gαi3 (as described in Brown et al. (2000), Yeast 16:11-22). Cells were grown at 30° C. in liquid Synthetic Complete (SC) yeast media (Guthrie and Fink (1991), Methods in Enzymology, Vol. 194) lacking uracil, tryptophan, adenine and leucine to late logarithmic phase (approximately 6 OD600/ml).
Agonists were prepared as 10 mM stocks in DMSO. […] Agonist solutions in DMSO (1% final assay volume) were transferred into black, clear bottom, microtitre plates from NUNC (96- or 384-well). Cells were suspended at a density of 0.2 OD600/ml in SC media lacking histidine, uracil, tryptophan, adenine and leucine and supplemented with 10 mM 3-aminotriazole, 0.1M sodium phosphate pH 7.0, and […] fluorescein di-β-D-glucopyranoside (FDGlu). This mixture (50 ul per well for 384-well plates, 200 ul per well for 96-well plates) was added to agonist in the assay plates (Multidrop 384, Labsystems). After incubation at 30° C. for 24 hours, fluorescence resulting from degradation of FDGlu to fluorescein due to exoglucanase, an endogenous yeast enzyme produced during agonist-stimulated cell growth, was determined using a Spectrofluor microtitre plate reader (Tecan; excitation wavelength: 485 nm; emission wavelength: 535 nm). Fluorescence was plotted against compound concentration and iteratively curve fitted using a four parameter fit to generate a concentration effect value. Efficacy (Emax) was calculated from the equation
where Max[compound X] and Min[compound X] are the fitted maximum and minimum respectively from the concentration effect curve for compound X, and Max[HU210] and Min[HU210] are the fitted maximum and minimum respectively from the concentration effect curve for (6aR,10aR)-3-(1,1′-Dimethylheptyl)-6a,7,10,10a-tetrahydro-1-hydroxy-6,6-dimethyl-6H-dibenzo[b,d]pyran-9-methanol (HU210; available from Tocris). Equieffective molar ratio (EMR) values were calculated from the equation
Where EC50 [compound X] is the EC50 of compound X and EC50 [HU210] is the EC50 of HU210.

Chain of human cannabinoid CB2 receptor (P34972 whole entry): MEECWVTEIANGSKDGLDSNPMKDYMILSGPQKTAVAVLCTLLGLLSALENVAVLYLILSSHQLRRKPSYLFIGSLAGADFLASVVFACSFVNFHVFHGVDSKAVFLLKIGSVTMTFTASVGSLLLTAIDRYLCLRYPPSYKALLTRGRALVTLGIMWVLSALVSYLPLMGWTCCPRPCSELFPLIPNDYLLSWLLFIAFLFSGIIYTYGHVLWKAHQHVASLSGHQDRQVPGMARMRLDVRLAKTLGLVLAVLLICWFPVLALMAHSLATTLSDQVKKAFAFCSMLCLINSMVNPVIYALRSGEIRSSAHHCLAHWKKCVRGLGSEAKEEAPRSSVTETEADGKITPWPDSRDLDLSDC

**Q.** With `O=C(NCc1ccccc1Br)c1cnc(Nc2cccc(Cl)c2)nc1C(F)(F)F` [2-(3-Chloro-phenylamino)-4-trifluoromethyl-pyrimidine-5-carboxylic acid 2-bromo-benzylamide] as the compound, how does the “activity in the CB2 assay described herein” value (shortened to “activity”) read?
**A.** inactive

**Q.** For `COc1ccccc1CNC(=O)c1cnc(Nc2cccc(Cl)c2)nc1C(F)(F)F` [2-(3-Chloro-phenylamino)-4-trifluoromethyl-pyrimidine-5-carboxylic acid 2-methoxy-benzylamide], which “activity” value is on record?
**A.** inactive

**Q.** With `CN(Cc1ccccc1)C(=O)c1cnc(Nc2ccc(C(C)(C)C)cc2)nc1C(F)(F)F` [2-(4-tert-butyl-phenylamino)-4-trifluoromethyl-pyrimidine-5-carboxylic acid benzyl-methyl-amide] as the compound, how does the “activity” value read?
**A.** inactive

**Q.** How did the “activity” value turn out when `CC(C)(C)c1ccc(Nc2ncc(C(=O)NCc3ccccc3)c(C(F)(F)F)n2)cc1` [2-(4-tert-butyl-phenylamino)-4-trifluoromethyl-pyrimidine-5-carboxylic acid benzylamide] was run?
**A.** inactive

**Q.** How did the EC50 turn out when `O=C(c1cnc(Nc2cccc(Cl)c2)nc1C(F)(F)F)N1CCCCC1` [Example 1, 1-[2-(3-Chlorophenylamino)-4-trifluoromethylpyrimidin-5-yl]-1-piperidin-1-ylmethanone] was run?
**A.** 20 to 300 nM

**Q.** What about the Emax of the same compound?
**A.** > 50%

**Q.** How did the EC50 turn out when `O=C(NCC1CCCC1)c1cnc(Nc2cccc(Cl)c2)nc1C(F)(F)F` [Example 2, 2-(3-Chlorophenylamino)-4-trifluoromethylpyrimidine-5-carboxylic acid cyclopentylmethyl-amide] was run?
**A.** 20 to 300 nM

**Q.** What about the Emax of the same compound?
**A.** > 50%

**Q.** `O=C(c1cnc(Nc2cccc(Cl)c2)nc1C(F)(F)F)N1CCOCC1` [Example 3, 1-[2-(3-Chlorophenylamino)-4-trifluoromethylpyrimidin-5-yl]-1-morpholin-4-yl-methanone] was tested. Which EC50 did it give?
**A.** 20 to 300 nM

**Q.** And the Emax?
**A.** > 50%

**Q.** `O=C(NCC1CCCCC1)c1cnc(Nc2cccc(Cl)c2)nc1C(F)(F)F` [Example 4, 2-(3-Chlorophenylamino)-4-trifluoromethylpyrimidine-5-carboxylic acid cyclohexylmethylamide] was tested. Which EC50 did it give?
**A.** 20 to 300 nM

**Q.** What about the Emax of the same compound?
**A.** > 50%

**Q.** With `O=C(NCC1CCCCC1)c1cnc(Nc2ccccc2)nc1C(F)(F)F` [Example 5] as the compound, how does the Emax read?
**A.** > 50%

**Q.** For `O=C(c1cnc(Nc2cccc(Cl)c2Cl)nc1C(F)(F)F)N1CCOCC1` [Example 6, 1-[2-(2,3-Dichlorophenylamino)-4-trifluoromethylpyrimidin-5-yl]-1-morpholin-4-yl-methanone], which EC50 is on record?
**A.** 20 to 300 nM

**Q.** And the Emax?
**A.** > 50%

**Q.** With `O=C(c1cnc(Nc2ccc(Cl)cc2Cl)nc1C(F)(F)F)N1CCOCC1` [Example 7, 1-[2-(2,4-Dichlorophenylamino)-4-trifluoromethylpyrimidin-5-yl]-1-morpholin-4-yl-methanone] as the compound, how does the EC50 read?
**A.** 20 to 300 nM

**Q.** And the Emax?
**A.** > 50%

**Q.** `O=C(c1cnc(Nc2cc(Cl)ccc2Cl)nc1C(F)(F)F)N1CCOCC1` [Example 9, 1-[2-(2,5-Dichlorophenylamino)-4-trifluoromethylpyrimidin-5-yl]-1-morpholin-4-yl-methanone] was tested. Which EC50 did it give?
**A.** 20 to 300 nM

**Q.** And the Emax?
**A.** > 50%

**Q.** Which results are given for `O=C(c1cnc(Nc2cccc(F)c2)nc1C(F)(F)F)N1CCOCC1` [Example 10, 1-[2-(3-Fluorophenylamino)-4-trifluoromethylpyrimidin-5-yl]-1-morpholin-4-yl-methanone]?
**A.** EC50: 20 to 300 nM; Emax: > 50%

**Q.** Which EC50 does the source give for `O=C(c1cnc(Nc2cccc(Br)c2)nc1C(F)(F)F)N1CCOCC1` [Example 11, 1-[2-(3-Bromophenylamino)-4-trifluoromethylpyrimidin-5-yl]-1-morpholin-4-yl-methanone] here?
**A.** 20 to 300 nM

**Q.** And the Emax?
**A.** > 50%

**Q.** `O=C(c1cnc(Nc2cccc(Br)c2)nc1C(F)(F)F)N1CCCCC1` [Example 12] was tested. Which Emax did it give?
**A.** > 50%

**Q.** `O=C(c1cnc(Nc2cc(Cl)cc(Cl)c2)nc1C(F)(F)F)N1CCOCC1` [Example 13, 1-[2-(3,5-Dichlorophenylamino)-4-trifluoromethylpyrimidin-5-yl]-1-morpholin-4-yl-methanone] was tested. Which EC50 did it give?
**A.** 20 to 300 nM

**Q.** And the Emax?
**A.** > 50%

**Q.** For `O=C(NC1CCCC1)c1cnc(Nc2cccc(Cl)c2)nc1C(F)(F)F` [Example 14, 2-(3-Chlorophenylamino)-4-trifluoromethylpyrimidine-5-carboxylic acid cyclopentylamide], which EC50 is on record?
**A.** 20 to 300 nM

**Q.** What about the Emax of the same compound?
**A.** > 50%

**Q.** Which EC50 does the source give for `O=C(NCC1CCCCC1)c1cnc(Nc2cccc(Cl)c2Cl)nc1C(F)(F)F` [Example 15, 2-(2,3-Dichlorophenylamino)-4-trifluoromethylpyrimidine-5-carboxylic acid cyclohexylmethyl-amide] here?
**A.** 20 to 300 nM

**Q.** What about the Emax of the same compound?
**A.** > 50%

**Q.** How did the EC50 turn out when `O=C(NCC1CCCCC1)c1cnc(Nc2ccc(Cl)cc2Cl)nc1C(F)(F)F` [Example 16, 2-(2,4-Dichlorophenylamino)-4-trifluoromethylpyrimidine-5-carboxylic acid cyclohexylmethyl-amide] was run?
**A.** 20 to 300 nM

**Q.** What about the Emax of the same compound?
**A.** > 50%

**Q.** Which EC50 does the source give for `O=C(NCC1CCCCC1)c1cnc(Nc2ccc(Cl)c(Cl)c2)nc1C(F)(F)F` [Example 17, 2-(3,4-Dichlorophenylamino)-4-trifluoromethylpyrimidine-5-carboxylic acid cyclohexylmethyl-amide] here?
**A.** 20 to 300 nM

**Q.** And the Emax?
**A.** > 50%

**Q.** How did the EC50 turn out when `O=C(NCC1CCCCC1)c1cnc(Nc2cc(Cl)cc(Cl)c2)nc1C(F)(F)F` [Example 18, 2-(3,5-Dichlorophenylamino)-4-trifluoromethylprimidine-5-carboxylic acid cyclohexylmethyl-amide] was run?
**A.** 20 to 300 nM

**Q.** What about the Emax of the same compound?
**A.** > 50%

**Q.** `O=C(NCC1CCCCC1)c1cnc(Nc2cccc(Br)c2)nc1C(F)(F)F` [Example 20, 2-(3-Bromophenylamino)-4-trifluoromethylpyrimidine-5-carboxylic acid cyclohexylmethyl-amide] was tested. Which EC50 did it give?
**A.** 20 to 300 nM

**Q.** And the Emax?
**A.** > 50%

**Q.** Which results are given for `O=C(NCC1CCCCC1)c1cnc(Nc2c(Cl)cccc2Cl)nc1C(F)(F)F` [Example 21, 2-(2,6-Dichlorophenylamino)-4-trifluoromethylpyrimidine-5-carboxylic acid cyclohexylmethyl-amide]?
**A.** EC50: 20 to 300 nM; Emax: > 50%

**Q.** `O=C(NCC1CCOCC1)c1cnc(Nc2cccc(Cl)c2)nc1C(F)(F)F` [Example 22, 2-(3-Chlorophenylamino)-4-trifluoromethylpyrimidine-5-carboxylic acid (tetrahydro-pyran-4-ylmethyl)-amide] was tested. Which EC50 did it give?
**A.** 20 to 300 nM

**Q.** And the Emax?
**A.** > 50%

**Q.** Which EC50 does the source give for `O=C(NC1CCC1)c1cnc(Nc2cccc(Cl)c2)nc1C(F)(F)F` [Example 23, 2-(3-Chlorophenylamino)-4-trifluoromethylpyrimidine-5-carboxylic acid cyclobutyl-amide] here?
**A.** 20 to 300 nM

**Q.** And the Emax?
**A.** > 50%

**Q.** For `O=C(c1cnc(Nc2ccccc2)nc1C(F)(F)F)N1CCCCC1` [Example 24, 1-(2-Phenylamino-4-trifluoromethyl-pyrimidin-5-yl)-1-piperidin-1-yl-methanone], which EC50 is on record?
**A.** 300 to 1000 nM

**Q.** And the Emax?
**A.** > 50%

**Q.** Which EC50 does the source give for `O=C(c1cnc(Nc2ccccc2)nc1C(F)(F)F)N1CCOCC1` [Example 25, 1-Morpholin-4-yl-1-(2-phenylamino-4-trifluoromethyl-pyrimidin-5-yl)-methanone] here?
**A.** 300 to 1000 nM

**Q.** What about the Emax of the same compound?
**A.** > 50%

**Q.** With `N#CCNC(=O)c1cnc(Nc2cccc(Cl)c2)nc1C(F)(F)F` [Example 26, 2-(3-Chloro-phenylamino)-4-trifluoromethyl-pyrimidine-5-carboxylic acid cyanomethyl-amide] as the compound, how does the EC50 read?
**A.** 300 to 1000 nM

**Q.** What about the Emax of the same compound?
**A.** > 50%

**Q.** With `CC(C)(C)CCNC(=O)c1cnc(Nc2cccc(Cl)c2)nc1C(F)(F)F` [Example 27, 2-(3-Chloro-phenylamino)-4-trifluoromethyl-pyrimidine-5-carboxylic acid (3,3-dimethyl-butyl)-amide] as the compound, how does the EC50 read?
**A.** 300 to 1000 nM

**Q.** What about the Emax of the same compound?
**A.** > 50%

**Q.** `CC(C)(C)CNC(=O)c1cnc(Nc2cccc(Cl)c2)nc1C(F)(F)F` [Example 28, 2-(3-Chloro-phenylamino)-4-trifluoromethyl-pyrimidine-5-carboxylic acid (2,2-dimethyl-propyl)-amide] was tested. Which EC50 did it give?
**A.** 300 to 1000 nM

**Q.** What about the Emax of the same compound?
**A.** > 50%

**Q.** For `O=C(NC1CCC1)c1cnc(Nc2cccc(F)c2)nc1C(F)(F)F` [Example 29, 2-(3-Fluoro-phenylamino)-4-trifluoromethyl-pyrimidine-5-carboxylic acid cyclobutylamide], which EC50 is on record?
**A.** 300 to 1000 nM

**Q.** And the Emax?
**A.** > 50%
